One data set deals with T1, NET (Homo sapiens, UniProt P23975).
T1 construct: endogenous in cells; host or cells: SK-N-SH neuroblastoma cells
Description: NET competitive binding assay ([125I]MIBG displacement, SK-N-SH cells). The note with it: 5 μM test compound, 2 hr incubation. The method, then:
An assay to assess binding of various MIBG-analogs to the NET was performed by published methods (Vaidynathan et al, Nucl. Med. Commun. 25:947-955 (2004), Vaidynathan et al, Bioorg. Med. Chem. 12:1649-1656 (2004), Vaidynathan et al, Bioconjugate Chem. 12:798-806 (2001), Vaidynathan et al, Eur. J. Nucl. Med. Mol. Imaging 31:1362-1370 (2004)). In brief, neuroblastoma SK—N—SH cells (moderate levels of NET) were treated with [^125I]MIBG and with increasing concentrations of unlabeled MIBG or MIBG-analogs. At the end of a 2 hr incubation and appropriate work-up, the cell-bound radioactivity was counted. Total cell-bound radioactivity minus non-specific cell-bound radioactivity gave a value for specific binding which was plotted in FIG. 9 against the concentration of test compounds. At 5 μM, cold MIBG displaced “100%” of the labeled-MIBG (i.e., “zero” cell-bound radioactivity). At 5 μM, chloromethyl-MIBG displaced 83%; the disulfide MIBG-SS-ethyl and the ester MIBG-phenylbutyrate displaced 50-55%; and hydroxymethyl-MIBG displaced 27%.

For the next data set, the system named is SK—N-BE(2c) (high NET). Description: Glutathione depletion in vitro, SK-N-BE(2c). The format is cell-based. The method, then:
(§1) The NB cell line SK—N-BE(2c) (high net) was treated with MIBG, MIBG-disulfide dimer (MIGB-S—S-MIBG), chloromethyl-MIBG (cmMIBG), and BSO. For comparison, the human breast cancer line MCF7 (no NET) was treated with chloromethyl-MIBG and BSO. At specific times, intracellular glutathione in drug-treated cells was determined relative to that in untreated cells (control).
SK—N-BE(2c) (high NET) cells were treated with a single concentration of chloromethyl-MIBG (25 μM at t=0). Glutathione concentrations in treated and untreated cells were measured at t=0.5, 1, 2, 3 and 4 hrs. Glutathione levels in drug-treated cells progressively fell, with a concentration 50% that of control at t 4 hrs (FIG. 10B).
(§2) Cells were exposed to 5 μM chloromethyl-MIBG (cmMIBG), 25 μM BSO and a combination of 5 μM chloromethyl-MIBG+25 μM BSO (both) for 7 hrs. Compared to controls, chloromethyl-MIBG alone depleted glutathione by about 30% in SK—N—Be(2c) cells and 8% in MCF7. BSO, as expected, depleted MCF7 and SK—N—Be(2c) by similar amounts (42 and 54% of controls, respectively). In combination studies, chloromethyl-MIBG+BSO depleted levels by about 85% in the SK—N—Be(2c) cells and had much less effect on the MCF7 cells with glutathione reduced by 49% relative to controls.

The conditions of data set [1]: (101×C3H)F1 male mice, cited from earlier work.
For a further data set, the system named is SK-N-BE(2c) (NET ++++). Description: cells. Format: cell-based.
For another data set, the system named is SK-N-SH (NET ++). Description: Cytotoxicity, MTT assay, SK-N-SH. The format is cell-based.
A further data set in a line: in vitro. Format: cell-based, human. The note with it: human; for IC50 at 24 h: 24 hr assay.
In a further data set the test system is MCF7 (NET 0). The experiment in a line: in vitro. The format is cell-based, human.
The nature of data set [2]: Stability / reaction kinetics by proton NMR (half-life). The format is physicochemical. The following applies: 37° C., pH 7.4, BisTris buffer, 5% DMSO. An excerpt:
Proton NMR was used to determine the half-lives for chloro- and bromomethyl-MIBG (Table 1). These analogs react with nucleophiles via an SN2 mechanism; therefore, the rate of the reaction depends on the strength and concentration of the nucleophile as well as the nature of the leaving group. Thus, the half-lives of the analogs are predictably longer in buffer than they are in buffer with added glutathione (a relatively strong nucleophile) and, under the same conditions, the bromo analog (better leaving group) reacts faster than the chloro analog.

The subject of the next data set is MCF7 (no NET). Description: Glutathione depletion in vitro, MCF7. The format is cell-based, human. The following applies: 25 μM BSO, 7 hrs. The method, then: as §1, §2
Setting [3] is: single agent, 1% DMSO, read-out: Cytotoxicity IC50.
Where [4] appears, read: 48 hr assay (24 h exposure + 24 h recovery), Table 3, read-out: Cytotoxicity IC50.
[5] abbreviates: 24 hr assay, single agent, 1% DMSO, read-out: Cytotoxicity IC50.

Values joined by “and” are separate entries in the source; they are usually repeats but may differ in a detail not shown here. Equal values may be shown once. Read-outs that look alike come from different tables or passages of the source.

T1 sequence (P23975 whole entry): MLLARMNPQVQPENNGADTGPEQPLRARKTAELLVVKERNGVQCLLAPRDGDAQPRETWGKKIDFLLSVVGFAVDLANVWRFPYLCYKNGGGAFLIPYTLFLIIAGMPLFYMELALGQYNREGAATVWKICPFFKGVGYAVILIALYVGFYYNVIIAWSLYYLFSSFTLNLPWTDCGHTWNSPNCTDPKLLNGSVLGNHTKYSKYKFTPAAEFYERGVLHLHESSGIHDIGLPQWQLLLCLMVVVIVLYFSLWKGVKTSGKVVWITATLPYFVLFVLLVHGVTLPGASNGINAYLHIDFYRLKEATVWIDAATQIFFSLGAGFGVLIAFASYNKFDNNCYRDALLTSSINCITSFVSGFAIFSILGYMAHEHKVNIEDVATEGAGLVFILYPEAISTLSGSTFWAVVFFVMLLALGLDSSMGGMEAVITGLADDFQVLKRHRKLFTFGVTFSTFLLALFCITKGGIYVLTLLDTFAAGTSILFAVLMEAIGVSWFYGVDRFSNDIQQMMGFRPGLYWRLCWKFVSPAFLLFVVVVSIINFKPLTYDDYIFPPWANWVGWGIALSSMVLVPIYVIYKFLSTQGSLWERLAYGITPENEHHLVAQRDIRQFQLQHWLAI

As for `N=C(N)NCc1ccc(CO)c(I)c1` [hydroxymethyl-MIBG], at NET, the “displacement of [125I]MIBG (specific cell-bound radioactivity)” value turned out to be 27%.
Take `N=C(N)NCc1cccc([131I])c1` [MIBG, meta-iodobenzylguanidine]: the “displacement of [125I]MIBG (specific cell-bound radioactivity)” value at NET is recorded as 100%. Also, in the data set on SK—N-BE(2c) (high NET) (concentrations up to 25 μM, incubation up to 4 hrs), the “effect on glutathione levels” value is given as “did not significantly affect glutathione levels”.
For the compound `N[C@@H](Cc1ccc(N(CCCl)CCCl)cc1)C(=O)O` [Melphalan], the death rate in data set [1] (20 mg/kg single injection i.p., by one week) is 100%. In addition, in [1] (single injection, i.p.), the MTD is 10 to 15 mg/kg. Also, the IC50 in the data set on SK-N-BE(2c) (NET ++++) (SK-N-BE(2)-C, 24 h, read-out: Cytotoxicity IC50, 24 hr assay, single agent, 1% DMSO) came out at 36.2 ± 5.2 µM; with SK-N-BE(2c) (NET ++++) (SK-N-BE(2)-C, 24 h, read-out: Cytotoxicity IC50 of melphalan, 24 hr assay, + 5 μM MIBG), 43.5 ± 7 µM; in the data set with SK-N-BE(2c) (NET ++++) (SK-N-BE(2)-C, 24 h, read-out: Cytotoxicity IC50 of melphalan, 24 hr assay, + 5 μM cmMIBG (Table 2D)) it was 11.3 ± 5.4 µM; in the data set on SK-N-BE(2c) (NET ++++) (SK-N-BE(2)-C, 24 h, read-out: Cytotoxicity IC50 of melphalan, competition experiment, 24 hr assay, + 5 μM cmMIBG + 5 μM MIBG), 22.9 µM; in the data set on SK-N-BE(2c) (NET ++++) (SK-N-BE(2)-C, 24 h, read-out: Cytotoxicity IC50 of melphalan, competition experiment, 24 hr assay, + 5 μM cmMIBG plus vehicle (no MIBG)), 8.1 µM; in the data set on SK-N-BE(2c) (NET ++++) (SK-N-BE(2)-C, 48 h, read-out: Cytotoxicity IC50, 48 hr assay, single agent, Table 4), 25.8 ± 3.5 µM. Also, the IC50 in the data set with SK-N-BE(2c) (NET ++++) (SK-N-BE(2)-C, 48 h, read-out: Cytotoxicity IC50 of melphalan, 48 hr assay, + 1 μM cmMIBG added at same time) was determined as 13.9 ± 4.7 µM; in the data set on SK-N-BE(2c) (NET ++++) (SK-N-BE(2)-C, 48 h, read-out: Cytotoxicity IC50 of melphalan, 48 hr assay, + 5 μM cmMIBG added at same time), 7.3 ± 1.3 µM; in the data set with SK-N-BE(2c) (NET ++++) (SK-N-BE(2)-C, read-out: Cytotoxicity IC50, 48 hr assay (24 h exposure + 24 h recovery), Table 3), 25.8 ± 3.54 µM; in the data set on SK-N-BE(2c) (NET ++++) (SK-N-BE(2)-C, read-out: Cytotoxicity IC50 of melphalan, 48 hr assay, cells treated with 1 μM cmMIBG for 3 hrs, then melphalan added), 14 ± 3.7 µM; in the data set on SK-N-BE(2c) (NET ++++) (SK-N-BE(2)-C, read-out: Cytotoxicity IC50 of melphalan, 48 hr assay, cells treated with 5 μM cmMIBG for 3 hrs, then melphalan added), 10.2 ± 0.9 µM; in the data set on SK-N-SH (NET ++) (Homo sapiens, SK-N-SH, 48 h, read-out: Cytotoxicity IC50, 48 hr assay, single agent, Table 4), 54.1 ± 13.8 µM. In addition, the IC50 turned out to be 36.7 ± 18.7 µM in the data set with SK-N-SH (NET ++) (Homo sapiens, SK-N-SH, 48 h, read-out: Cytotoxicity IC50 of melphalan, 48 hr assay, + 1 μM cmMIBG added at same time); 29.9 ± 10.6 µM in the data set on SK-N-SH (NET ++) (Homo sapiens, SK-N-SH, 48 h, read-out: Cytotoxicity IC50 of melphalan, 48 hr assay, + 5 μM cmMIBG added at same time); 54.1 ± 13.8 µM in the data set on SK-N-SH (NET ++) (Homo sapiens, SK-N-SH, read-out: Cytotoxicity IC50, 48 hr assay (24 h exposure + 24 h recovery), Table 3); 29.8 ± 4.8 µM in the data set on SK-N-SH (NET ++) (Homo sapiens, SK-N-SH, read-out: Cytotoxicity IC50 of melphalan, 48 hr assay, cells treated with 1 μM cmMIBG for 3 hrs, then melphalan added); 38.4 ± 7.7 µM in the data set on SK-N-SH (NET ++) (Homo sapiens, SK-N-SH, read-out: Cytotoxicity IC50 of melphalan, 48 hr assay, cells treated with 5 μM cmMIBG for 3 hrs, then melphalan added). Moreover, the IC50 at 24 h in “in vitro” (+ 5 μM MIBG, read-out: Cytotoxicity IC50 of melphalan) was 386 ± 181 µM; in the data set “in vitro” (+ 5 μM cmMIBG (Table 2D), read-out: Cytotoxicity IC50 of melphalan), 276 ± 28 µM; in “in vitro” (setting [3]), 250 ± 112 µM. In addition, the IC50 at 48 h in “in vitro” (setting [4]) came out at 126 ± 28 µM; in “in vitro” (48 hr assay, + 1 μM cmMIBG added at same time, read-out: Cytotoxicity IC50 of melphalan) it was 127 ± 17 µM; in the data set “in vitro” (48 hr assay, + 5 μM cmMIBG added at same time, read-out: Cytotoxicity IC50 of melphalan), 75 ± 25 µM; in “in vitro” (48 hr assay, cells treated with 1 μM cmMIBG for 3 hrs, then melphalan added, read-out: Cytotoxicity IC50 of melphalan), 60 ± 7 µM; in the data set “in vitro” (48 hr assay, cells treated with 5 μM cmMIBG for 3 hrs, then melphalan added, read-out: Cytotoxicity IC50 of melphalan), 43 ± 11 µM; in “in vitro” (48 hr assay, single agent, Table 4, read-out: Cytotoxicity IC50) it was 126 ± 28 µM.
Regarding `ClCc1ccccc1` [chloromethyl-benzene, benzylchloride], in the data set on SK-N-BE(2c) (NET ++++) (setting [5]), the IC50 amounted to 172 ± 31 µM. Moreover, the IC50 at 24 h in the data set “in vitro” (setting [3]) came to 390 ± 77 µM.
With `CCSSCc1ccc(CNC(=N)N)cc1I` [MIBG-SS-ethyl], the IC50 was 27.4 ± 4.09 µM in the data set on SK-N-BE(2c) (NET ++++) (setting [4]) and 24.2 ± 7.21 µM in the data set with MCF7 (NET 0) (setting [4]).
Consider `N=C(N)NCc1ccc(CSSCc2ccc(CNC(=N)N)cc2I)c(I)c1` [MIBG-disulfide dimer], for which, in the data set with SK—N-BE(2c) (high NET) (5 μM), the “effect on glutathione levels” value is recorded as “a transient loss of glutathione was observed” and the “time for glutathione to return to pre-treatment levels” value was no more than 8 h. In addition, in the data set on SK—N-BE(2c) (high NET) (higher concentrations (25 and 100 microM), up to 8 hrs), the “effect on glutathione levels and cell viability” value was “extensive loss of glutathione and cell viability with no recovery”.
For `N=C(N)NCc1ccc(CSC[C@H](NC(=O)CC[C@H](N)C(=O)O)C(=O)NCC(=O)O)c(I)c1` [MIBG-S-Glutathione], the IC50 in the data set on SK-N-BE(2c) (NET ++++) was 390 µM; with MCF7 (NET 0) it was greater than 1000 µM.
On to `N=C(N)NCc1cccc(I)c1` [MIBG, meta-iodobenzylguanidine], for which the IC50 is 167 µM and 200 µM in the data set on SK-N-BE(2c) (NET ++++) (setting [5]); 142 ± 21 µM with SK-N-BE(2c) (NET ++++) (setting [4]); 190 ± 22 µM with SK-N-SH (NET ++) (setting [4]); 227 µM and 232 µM with MCF7 (NET 0) (setting [5]); 137 ± 27 µM in the data set with MCF7 (NET 0) (setting [4]).
In turn, `N=C(N)NCc1ccc(CBr)c(I)c1` [Bromomethyl-MIBG] displayed a Half-life in data set [2] of 42.5 ± 0.7 min. For the same compound, the “Half-life w/10 eq GSH” value in [2] (10 eq GSH) is less than 0.083 min.
For `CCCCS(=N)(=O)CCC(N)C(=O)O` (stereo not shown) [BSO, buthionine sulfoximine], the “glutathione depletion compared to controls” value in the data set with MCF7 (no NET) was 42%; in the data set on SK—N-BE(2c) (high NET) (25 μM BSO, 7 hrs), 54%.

Values taken from patent publication US20100104628A1, “METHOD OF TREATING NEUROBLASTOMA” (priority 2007, published 2010).
